This note sets out measurements from patent US11993598B2, “Compounds for inhibiting EGFR kinase, preparation methods and uses thereof” (WIGEN BIOMEDICINE TECHNOLOGY (SHANGHAI) CO., LTD., priority 2019, dated 2024).

In one assay the target is EGFR-WT (Homo sapiens, UniProt P00533). Nature of the assay: Wild-type EGFR biochemical activity assay (HTRF). The procedure: (§1) Assay 1: Wild-type EGFR, HER2 and HER4, and mutant EGFR biochemical activity assay
(§2) 10 nL of Serially diluted compounds were transferred to assay plates using the labcyte Echo 550, and 5 uL of 2× enzymes in assay buffer were subsequently dispensed. The assay plate was covered with an adhesive plate seal, and briefly spinned for 30 s at 1000 g. 5 uL of 2× TK-substrate-biotin and ATP mixed in assay buffer were added.
(§3) IC50 was calculated and analyzed using a 4 parametric logistic model.
A general note: Time-resolved FRET reads energy transfer from a long-lived donor to a nearby acceptor.

The target of another assay is EGFR L792F (Homo sapiens, UniProt P00533, L792F). Nature of the assay: Mutant EGFR biochemical activity assay (HTRF). The procedure: as §1, §2, §3
Chain of EGFR L792F (P00533 25-1210 L792F): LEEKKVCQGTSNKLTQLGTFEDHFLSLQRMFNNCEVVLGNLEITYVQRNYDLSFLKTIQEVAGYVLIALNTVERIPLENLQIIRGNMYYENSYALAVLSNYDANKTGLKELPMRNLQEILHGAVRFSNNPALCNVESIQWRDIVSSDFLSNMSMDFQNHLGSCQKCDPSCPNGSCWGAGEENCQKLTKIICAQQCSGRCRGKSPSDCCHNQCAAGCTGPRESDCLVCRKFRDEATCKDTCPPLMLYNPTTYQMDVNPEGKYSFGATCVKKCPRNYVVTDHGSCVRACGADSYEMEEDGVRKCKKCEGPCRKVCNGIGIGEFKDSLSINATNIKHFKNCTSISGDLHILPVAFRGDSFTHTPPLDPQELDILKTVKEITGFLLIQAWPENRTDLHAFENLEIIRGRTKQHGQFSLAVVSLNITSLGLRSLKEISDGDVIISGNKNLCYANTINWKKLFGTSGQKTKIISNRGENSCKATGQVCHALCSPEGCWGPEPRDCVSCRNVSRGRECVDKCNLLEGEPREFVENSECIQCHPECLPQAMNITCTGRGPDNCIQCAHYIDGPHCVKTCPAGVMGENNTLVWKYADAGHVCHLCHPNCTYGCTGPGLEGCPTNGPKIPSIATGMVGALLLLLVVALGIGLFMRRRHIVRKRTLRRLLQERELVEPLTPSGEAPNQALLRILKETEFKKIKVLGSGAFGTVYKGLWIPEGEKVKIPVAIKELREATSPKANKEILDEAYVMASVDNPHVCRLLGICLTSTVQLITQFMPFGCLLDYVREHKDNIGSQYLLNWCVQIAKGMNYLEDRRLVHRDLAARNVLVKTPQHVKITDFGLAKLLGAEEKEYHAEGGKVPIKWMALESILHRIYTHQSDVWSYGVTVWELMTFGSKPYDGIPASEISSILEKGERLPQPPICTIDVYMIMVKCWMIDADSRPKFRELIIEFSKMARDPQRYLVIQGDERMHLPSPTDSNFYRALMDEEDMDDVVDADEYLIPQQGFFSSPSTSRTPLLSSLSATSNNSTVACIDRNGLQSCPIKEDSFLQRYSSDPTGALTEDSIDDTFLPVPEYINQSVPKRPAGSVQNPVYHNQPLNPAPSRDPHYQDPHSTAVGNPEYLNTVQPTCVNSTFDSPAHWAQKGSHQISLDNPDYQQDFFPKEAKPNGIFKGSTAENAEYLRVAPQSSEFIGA
A further assay addresses EGFR D770-N771insNPG (Homo sapiens, UniProt P00533, INS770NPG). Nature of the assay: Mutant EGFR biochemical activity assay (HTRF). The procedure: as §1, §2, §3
In another assay the target is EGFR T790M/L858R (Homo sapiens, UniProt P00533, L858R/T790M). Nature of the assay: Mutant EGFR biochemical activity assay (HTRF). The procedure:
as §1, §2, §3

The target of a further assay is EGFR A763_Y764insFHEA (Homo sapiens, UniProt P00533, INS763FHEA). Nature of the assay: Mutant EGFR biochemical activity assay (HTRF). To be noted: read-out: IC50 (nM) EGFR A763_Y764 insFHEA. How it is done: as §1, §2, §3
The target of a further assay is EGFR Del19 (Homo sapiens, UniProt P00533). Nature of the assay: Mutant EGFR biochemical activity assay (HTRF). The procedure:
as §1, §2, §3

The next assay addresses EGFR L792H (Homo sapiens, UniProt P00533, L792H). Nature of the assay: Mutant EGFR biochemical activity assay (HTRF). How it is done: as §1, §2, §3
The target in assay [1] is EGFR D770_N771insNPG T790M (Homo sapiens, UniProt P00533, INS770NPG/T790M). Nature of the assay: Mutant EGFR biochemical activity assay (HTRF). To be noted: read-out: IC50 (nM) EGFR D770_N771 insNPG T790M. How it is done: as §1, §2, §3
For a further assay, the target named is EGFR T790M (Homo sapiens, UniProt P00533, T790M). Nature of the assay: Mutant EGFR biochemical activity assay (HTRF). How it is done: as §1, §2, §3
A further assay deals with EGFR D770GY (Homo sapiens, UniProt P00533, D770Y/INS769G). Nature of the assay: Mutant EGFR biochemical activity assay (HTRF). How it is done:
as §1, §2, §3

A further assay addresses HER4 (Homo sapiens, UniProt Q15303). Nature of the assay: HER4 biochemical activity assay (HTRF). How it is done: as §1, §2, §3
Assay [2] relates to A431 (wild type EGFR, skin cancer). Nature of the assay: Cell proliferation assay (MTT). Type of assay: cell-based. To be noted: Homo sapiens, A-431, 72 h, three days. How it is done:
(§4) A431 cells, H1975 and Ba/F3 cells expressing various mutant EGFR were harvested from exponential phase cultures and seeded in 96-well plates at a cell density of 3000 per well for A431 and H1975, and 10000 per well for Ba/F3 cells. After overnight attachment, compounds were 3-fold serially diluted and applied to cells at 30 μM, 10 μM, 3 μM, 1 μM, 0.3 μM, […], 0.03 μM and 0.01 μM with triplicates, and incubated for three days. 20 μL of 5 mg/mL MTT was added afterwards followed by the further addition of 50 μL 10% SDS together with 5% isobutyl alcohol in 0.01 mol/L HCl. The plates were incubated overnight. Absorbance (A) at a wavelength of 570 nm was quantified. Percentage of inhibition was used for the calculation of IC50 based on the bliss method.

Assay [3] concerns H1975 (EGFR L858R/T790M, NSCLC). Nature of the assay: Cell proliferation assay (MTT). The class given is cell-based. To be noted: Homo sapiens, NCI-H1975, 72 h, three days. The procedure: as §4
Assay [4] deals with Ba/F3_EGFR D770_N771insSVD (Homo sapiens, UniProt P00533, DUP768-770, cells depend on it). Nature of the assay: Cell proliferation assay (MTT). The class given is cell-based. To be noted: three days, read-out: Ba/F3_EGFR D770_N771insSVD IC50. The procedure: as §4
Chain of Ba/F3_EGFR D770_N771insSVD (P00533 with tags, fused parts or gaps DUP768-770): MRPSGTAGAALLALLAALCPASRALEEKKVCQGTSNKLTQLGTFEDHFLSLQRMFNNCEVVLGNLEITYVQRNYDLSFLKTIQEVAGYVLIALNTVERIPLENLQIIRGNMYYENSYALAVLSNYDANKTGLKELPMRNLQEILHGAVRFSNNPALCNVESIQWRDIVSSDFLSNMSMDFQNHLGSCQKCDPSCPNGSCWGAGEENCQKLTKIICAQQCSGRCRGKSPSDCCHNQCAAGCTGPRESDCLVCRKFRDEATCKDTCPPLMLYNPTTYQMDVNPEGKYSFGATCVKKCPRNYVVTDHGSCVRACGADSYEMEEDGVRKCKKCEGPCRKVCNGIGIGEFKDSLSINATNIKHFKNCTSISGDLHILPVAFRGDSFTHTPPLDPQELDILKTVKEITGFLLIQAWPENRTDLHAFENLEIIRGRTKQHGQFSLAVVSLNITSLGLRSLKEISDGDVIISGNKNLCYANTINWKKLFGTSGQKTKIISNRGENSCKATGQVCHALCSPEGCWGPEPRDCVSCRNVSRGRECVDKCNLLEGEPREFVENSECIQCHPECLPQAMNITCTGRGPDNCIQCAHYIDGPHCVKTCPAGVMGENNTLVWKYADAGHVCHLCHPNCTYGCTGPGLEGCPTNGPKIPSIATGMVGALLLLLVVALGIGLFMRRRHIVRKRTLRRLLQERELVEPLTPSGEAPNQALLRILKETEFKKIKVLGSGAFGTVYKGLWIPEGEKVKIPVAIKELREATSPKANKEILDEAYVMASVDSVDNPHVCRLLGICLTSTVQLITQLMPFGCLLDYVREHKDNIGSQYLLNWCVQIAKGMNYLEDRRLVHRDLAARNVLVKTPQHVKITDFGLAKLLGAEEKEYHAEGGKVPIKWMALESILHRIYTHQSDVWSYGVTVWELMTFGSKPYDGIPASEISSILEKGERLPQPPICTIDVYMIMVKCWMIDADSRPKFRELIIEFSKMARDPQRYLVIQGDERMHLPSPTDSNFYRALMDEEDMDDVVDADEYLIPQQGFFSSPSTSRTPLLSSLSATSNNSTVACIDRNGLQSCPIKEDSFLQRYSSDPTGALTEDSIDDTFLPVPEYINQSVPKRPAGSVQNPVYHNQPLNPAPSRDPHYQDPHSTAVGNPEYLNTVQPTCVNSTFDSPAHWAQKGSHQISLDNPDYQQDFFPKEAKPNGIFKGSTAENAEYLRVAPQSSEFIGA
The target in assay [5] is Ba/F3_EGFR V769_D770insASV (Homo sapiens, UniProt P00533, DUP767-769, cells depend on it). Nature of the assay: Cell proliferation assay (MTT). The class given is cell-based. To be noted: three days, read-out: Ba/F3_EGFR V769_D770insASV IC50. The procedure:
as §4

The next assay concerns the target HER2 (Homo sapiens, UniProt P04626). Nature of the assay: HER2 biochemical activity assay (HTRF). The procedure:
as §1, §2, §3

Chain of EGFR-WT (P00533 25-1210): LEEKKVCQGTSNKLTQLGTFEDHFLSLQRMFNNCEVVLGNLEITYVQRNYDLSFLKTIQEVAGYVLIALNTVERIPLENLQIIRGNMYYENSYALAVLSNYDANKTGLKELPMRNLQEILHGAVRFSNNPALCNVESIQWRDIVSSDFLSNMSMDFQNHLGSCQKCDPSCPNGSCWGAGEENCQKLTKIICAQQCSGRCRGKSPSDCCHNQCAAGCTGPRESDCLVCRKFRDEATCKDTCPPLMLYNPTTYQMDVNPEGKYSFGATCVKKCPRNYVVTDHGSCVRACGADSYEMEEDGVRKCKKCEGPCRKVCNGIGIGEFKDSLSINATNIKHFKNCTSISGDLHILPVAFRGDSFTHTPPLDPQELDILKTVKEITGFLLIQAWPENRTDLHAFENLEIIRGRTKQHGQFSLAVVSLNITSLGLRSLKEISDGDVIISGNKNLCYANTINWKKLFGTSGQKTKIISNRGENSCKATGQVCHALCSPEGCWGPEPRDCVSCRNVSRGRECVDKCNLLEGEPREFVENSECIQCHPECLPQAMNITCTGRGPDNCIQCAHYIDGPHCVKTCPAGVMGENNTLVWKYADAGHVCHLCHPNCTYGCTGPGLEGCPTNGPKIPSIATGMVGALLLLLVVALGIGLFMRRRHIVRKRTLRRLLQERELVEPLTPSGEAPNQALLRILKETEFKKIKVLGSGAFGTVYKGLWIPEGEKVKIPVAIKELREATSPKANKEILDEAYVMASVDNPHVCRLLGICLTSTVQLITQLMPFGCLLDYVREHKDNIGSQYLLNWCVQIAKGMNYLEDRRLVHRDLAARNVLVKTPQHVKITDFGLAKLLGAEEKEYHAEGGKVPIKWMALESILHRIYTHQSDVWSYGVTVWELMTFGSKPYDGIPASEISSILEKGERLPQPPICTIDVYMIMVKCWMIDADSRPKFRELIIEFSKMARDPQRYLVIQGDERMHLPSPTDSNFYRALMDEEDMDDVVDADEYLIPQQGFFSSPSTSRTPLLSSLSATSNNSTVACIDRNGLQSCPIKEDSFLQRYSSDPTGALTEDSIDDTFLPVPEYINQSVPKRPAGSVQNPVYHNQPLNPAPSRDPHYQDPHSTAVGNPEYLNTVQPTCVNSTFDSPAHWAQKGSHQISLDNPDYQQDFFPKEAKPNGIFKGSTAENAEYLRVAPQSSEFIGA
Chain of EGFR D770GY (P00533 with tags, fused parts or gaps INS769G/D770Y limits assumed): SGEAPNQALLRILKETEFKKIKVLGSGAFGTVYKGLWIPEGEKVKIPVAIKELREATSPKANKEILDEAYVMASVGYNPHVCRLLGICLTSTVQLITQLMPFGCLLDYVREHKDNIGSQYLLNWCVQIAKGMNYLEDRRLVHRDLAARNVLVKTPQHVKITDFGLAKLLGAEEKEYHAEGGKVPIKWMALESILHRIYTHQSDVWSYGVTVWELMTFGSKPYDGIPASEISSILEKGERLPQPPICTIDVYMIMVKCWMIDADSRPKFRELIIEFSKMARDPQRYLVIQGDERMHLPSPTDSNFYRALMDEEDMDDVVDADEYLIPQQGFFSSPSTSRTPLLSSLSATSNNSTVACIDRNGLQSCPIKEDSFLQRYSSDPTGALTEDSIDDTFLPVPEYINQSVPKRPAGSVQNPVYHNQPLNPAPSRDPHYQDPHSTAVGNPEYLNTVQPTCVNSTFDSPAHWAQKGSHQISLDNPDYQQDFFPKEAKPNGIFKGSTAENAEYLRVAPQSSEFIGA
Chain of EGFR D770-N771insNPG (P00533 with tags, fused parts or gaps INS770NPG limits assumed): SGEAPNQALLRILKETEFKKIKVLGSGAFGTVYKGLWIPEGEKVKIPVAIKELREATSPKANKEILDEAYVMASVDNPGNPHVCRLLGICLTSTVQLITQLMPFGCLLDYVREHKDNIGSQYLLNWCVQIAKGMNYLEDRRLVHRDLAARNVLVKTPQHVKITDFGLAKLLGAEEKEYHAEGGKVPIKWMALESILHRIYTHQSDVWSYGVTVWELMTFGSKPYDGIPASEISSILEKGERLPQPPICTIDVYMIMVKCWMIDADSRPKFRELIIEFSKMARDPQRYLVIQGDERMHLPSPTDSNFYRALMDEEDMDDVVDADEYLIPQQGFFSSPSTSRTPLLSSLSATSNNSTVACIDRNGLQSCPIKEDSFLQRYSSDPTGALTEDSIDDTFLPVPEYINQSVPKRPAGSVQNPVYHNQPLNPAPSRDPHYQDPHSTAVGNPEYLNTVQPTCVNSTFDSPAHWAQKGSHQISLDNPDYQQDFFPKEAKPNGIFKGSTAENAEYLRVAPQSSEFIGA

Usually IC50 stands for the concentration that inhibits the measured activity by half. As to `C=CC(=O)Nc1cc(Nc2nccc(-n3c(=O)n4c5c(cccc53)CCC4)n2)c(OC)nc1N(C)CCN(C)C` [Compound 4, N-(2-((2-(dimethylamino)ethyl)(methyl)amino)-6-methoxy-5-((4-(2-oxo-5,6-dihydro-4H-imidazo[4,5,1-ij]quinolin-1(2H)-yl)pyrimidin-2-yl)amino)pyridin-3-yl)acrylamide], the IC50 on EGFR-WT worked out at 0.552 nM; against EGFR L792F it was 0.415 nM; at EGFR D770-N771insNPG, 0.0554 nM; at EGFR T790M/L858R, 0.0841 nM; on EGFR A763_Y764insFHEA it was 0.143 nM; against EGFR Del19 it was 0.233 nM. Also, the concentration for half-maximal inhibition (IC50) was 15.6 nM against EGFR L792H; 0.0514 nM in [1]; 0.0573 nM against EGFR T790M; 0.13 nM against EGFR D770GY; 0.694 nM on HER4; 154 nM in assay [2]. The IC50 in assay [3] is 12.4 nM; on HER2, 34.6 nM. The figures for the GI50 in [4] and in assay [5] were 5.08 nM and 15.7 nM, respectively.
